Entries after “also recorded” stand apart in the source; their conditions may differ.
What was measured:
[1] = target: T1, M-PMV Gag (Mason-Pfizer monkey virus, UniProt P07567); assay: In vitro transcription/translation, pelleting through a sucrose cushion (rapid centrifugation assay), M-PMV Gag; type: biochemical; conditions: added after 30 minutes, continued 90 minutes; sucrose cushion 35% w/v
T1 construct: made in house; host or cells: cell-free: coupled in vitro transcription/translation in rabbit reticulocyte lysate
Experimental: FIG. 5—In vitro transcription and translation reactions using plasmids containing M-PMV gag genes. After 30 minutes of incubation, anti-p 12 antibody or bis-ANS was added to the reactions. The reactions were then allowed to continue for an additional 90 minutes. Assembled products were analyzed by pelleting through a sucrose cushion (35% w/v). Synthesis reactions were pelleted through a sucrose cushion, and supernatant and pellet were then collected for gel analysis. […] Lanes S and P indicate supernatant and pellet, respectively.

[2] = target: T1, M-PMV Gag; assay: In vitro transcription/translation and assembly, sucrose density gradient fractionation and SDS-PAGE, M-PMV Gag; type: biochemical; conditions: added with cyclohexamide after 30 minutes of incubation, reaction continued 90 minutes
Experimental: (§1) FIGS. 3A–E—In vitro transcription and translation reactions using plasmids containing M-PMV, HIV, and Chimera 3a gag genes. After 30 minutes of incubation, cyclohexamide (left panels, FIGS. 3A, 3C, and 3E) or cyclohexamide plus bis-ANS (right panels, FIGS. 3B, 3D, and 3F) were added to the reactions. The reactions were then allowed to continue for an additional 90 minutes. Assembled products were analyzed by sucrose density gradient fractionation and SDS-PAGE. Like M-PMV, but in contrast to HIV, the formation of sedimented material indicative of particle formation by Chimera 3a has been inhibited by the addition of bis-ANS.
FIGS. 4A–D—In vitro transcription and translation reactions using plasmids containing M-PMV and Chimera 4 gag genes. After 30 minutes of incubation, cyclohexamide (left panels, FIGS. 4A and 4C) or cyclohexamide plus bis-ANS (right panels, FIGS. 4B and 4D) were added to the reactions. The reactions were then allowed to continue for an additional 90 minutes. Assembled products were analyzed by sucrose density gradient fractionation and SDS-PAGE. Like M-PMV, the formation of sedimented material by Chimera 4 has been inhibited by the addition of bis-ANS. Lanes L and P indicate the loading material and re-suspended pellet, respectively. […]

[3] = target: T2, HIV Gag (Human immunodeficiency virus type 1 group M subtype B, UniProt P04591); assay: In vitro transcription/translation, sucrose density gradient fractionation and SDS-PAGE, HIV Gag; type: biochemical; conditions: added with cyclohexamide after 30 minutes of incubation, reaction continued 90 minutes
T2 construct: made in house; host or cells: cell-free: in vitro transcription/translation (reticulocyte lysate)
Experimental: as §1
(§2) In vitro assembly assays, such as that taught by Sakalian, M., et al. (1996), “Synthesis and assembly of retrovirus Gag precursors into immature capsids in vitro,” J Virol 70, pp. 3706–15, hereby incorporated by reference in its entirety, maybe used to screen for inhibitors of capsid assembly. Briefly, in vitro transcription of chimeric gag -containing plasmids to produce capped RNA transcripts may be performed using the mMESSAGE MMACHINE kit (Ambion, Austin, Tex.), in accordance with the manufacturers instructions. Translation reactions may be performed in the presence of [^35S]methionine in commercially-available rabbit reticulocyte lysates, according to the instructions of the manufacturer (for example, Promega). […]

[4] = target: T3, Chimera 3a (Human immunodeficiency virus type 1 group M subtype B, UniProt P04591); assay: In vitro transcription/translation and assembly, sucrose density gradient fractionation and SDS-PAGE, Chimera 3a Gag; type: biochemical, HIV / M-PMV; conditions: added with cyclohexamide after 30 minutes of incubation, reaction continued 90 minutes
T3 construct: made in house; host or cells: cell-free: in vitro transcription/translation (reticulocyte lysate) from plasmid pDABCh3a
Experimental: as §1, §2

[5] = target: T4, Chimera 4 (Human immunodeficiency virus type 1 group M subtype B, UniProt P04591); assay: In vitro transcription/translation and assembly, sucrose density gradient fractionation and SDS-PAGE, Chimera 4 Gag; type: biochemical, HIV / M-PMV; conditions: added with cyclohexamide after 30 minutes of incubation, reaction continued 90 minutes
T4 construct: the megaprimer reaction yielded a product that contained all of HIV Gag fused to M-PMV p12; made in house; host or cells: cell-free: in vitro transcription/translation (reticulocyte lysate) from plasmid pDABCh4
Experimental: FIGS. 4A–D—In vitro transcription and translation reactions using plasmids containing M-PMV and Chimera 4 gag genes. After 30 minutes of incubation, cyclohexamide (left panels, FIGS. 4A and 4C) or cyclohexamide plus bis-ANS (right panels, FIGS. 4B and 4D) were added to the reactions. The reactions were then allowed to continue for an additional 90 minutes. Assembled products were analyzed by sucrose density gradient fractionation and SDS-PAGE. Like M-PMV, the formation of sedimented material by Chimera 4 has been inhibited by the addition of bis-ANS. Lanes L and P indicate the loading material and re-suspended pellet, respectively.
as §2

T1 sequence (P07567 whole entry): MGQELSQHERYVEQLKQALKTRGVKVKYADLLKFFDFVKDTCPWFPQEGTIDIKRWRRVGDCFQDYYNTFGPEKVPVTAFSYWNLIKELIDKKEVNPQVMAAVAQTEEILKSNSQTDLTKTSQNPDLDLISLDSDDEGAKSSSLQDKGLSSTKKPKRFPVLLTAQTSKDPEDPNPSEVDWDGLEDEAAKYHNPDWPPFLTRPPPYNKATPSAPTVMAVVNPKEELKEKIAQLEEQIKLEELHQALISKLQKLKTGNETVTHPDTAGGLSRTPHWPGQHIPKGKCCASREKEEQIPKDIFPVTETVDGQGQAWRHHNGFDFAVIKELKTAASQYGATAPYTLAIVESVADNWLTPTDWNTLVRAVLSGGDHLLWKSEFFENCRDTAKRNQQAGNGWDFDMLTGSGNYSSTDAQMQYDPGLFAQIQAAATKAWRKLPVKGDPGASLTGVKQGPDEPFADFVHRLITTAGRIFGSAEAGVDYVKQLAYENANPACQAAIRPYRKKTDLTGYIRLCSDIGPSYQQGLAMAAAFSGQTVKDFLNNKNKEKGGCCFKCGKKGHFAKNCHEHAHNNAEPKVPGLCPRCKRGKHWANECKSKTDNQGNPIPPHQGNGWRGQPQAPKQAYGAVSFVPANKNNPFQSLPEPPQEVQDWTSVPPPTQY

O=S(=O)(O)c1cccc2c(-c3ccc(Nc4ccccc4)c4c(S(=O)(=O)O)cccc34)ccc(Nc3ccccc3)c12 [bis-ANS]
formation of pelletable material by M-PMV Gag (immature M-PMV viral capsids) [1]: reduce or prevent; also recorded: significantly reduce
formation of sedimented material by M-PMV Gag [2]: inhibited
distribution of HIV Gag in sucrose gradients [3]: no effect
formation of sedimented material indicative of particle formation by Chimera 3a [4]: inhibited; also recorded: largely blocked
formation of sedimented material by Chimera 4 [5]: inhibited; also recorded: largely blocked
